Results as given in a melting point compilation (Tetko et al.; mined from patent text by program, amines drawn as free bases though some values may be those of a salt).

Point of comparison: `O=c1[nH]c(=O)c2cccnc2[nH]1`, melting point 360 °C. Against it:
- CCOC(=O)C(NC(=O)OC(C)(C)C)C(c1ccc(O)cc1)S(=O)(=O)C(F)(F)F (centres undefined) — lower, 47 to 49 °C
- CCOC(=O)c1nc(NC)sc1-c1cn2ccc(C)cc2n1 — lower, 210 to 213 °C
- CCOP(=S)(CNSCNC(=O)ON=C(C)SC)OCC — lower, 72 to 73 °C
- O=C(NCc1cc(C(F)(F)F)cc(C(F)(F)F)c1)c1cnc(Cl)nc1Cl — lower, 144 to 145 °C
- CCC(CC)Nc1c(Br)c(CBr)nc2c1nnn2-c1c(C)cc(C)cc1C — lower, 115 to 117 °C
- COc1ncccc1NC(=O)C1(O)CCCn2c1nc(-c1ccncn1)cc2=O (racemic) — lower, 208 to 210 °C
- COc1ccc(C(=O)Cc2c(Cl)cccc2Cl)c2c1OCCO2 — lower, 154 to 155 °C
- Cc1cccc(CC(Nc2ccccc2)C(=O)NC(C#N)COCc2cccc(C(=O)O)c2)c1 (centres undefined) — lower, 135 to 137 °C
- Cc1cc(C)c2c(n1)CC(c1ccccc1C)CC2=O (centres undefined) — lower, 106 to 107 °C
- Clc1ccc2nc(CN3CCc4ccccc4C3)[nH]c2c1 — lower, 204 to 206 °C
- CCCN(CCC)C(=O)CNc1nc(-c2ccccc2)nc(C(C)C)c1C — lower, 98 to 99 °C
- O=C1OCCC12Sc1cc(Cl)ccc1C2=O (centres undefined) — lower, 157 to 158 °C
- CCn1cnc2c(N)nc(Cl)nc21 — lower, 258 to 262 °C
- O=S(=O)(Cl)c1ccc(Oc2ccc(Br)cc2)cc1 — lower, 80.9 °C
- COc1ccc(NC(=O)c2c[nH]c3c2C(=O)CC(C)(C)C3)c(F)c1 — lower, 203 to 205 °C
- CCOC(=O)C1=C(COCC(O)CCO)NC(C)=C(C(=O)OC)C1c1cccc(Cl)c1Cl (centres undefined) — lower, 86 to 89 °C
- CC(C)(C)OC(=O)N1CCC(c2nc3cc(-c4ccc(S(C)(=O)=O)cc4F)ccc3[nH]2)CC1 — lower, 88 to 92 °C
- CC(C)(O)COc1c(-c2ccc(S(C)(=O)=O)cc2)cnn(-c2ccc(Cl)c(Cl)c2)c1=O — lower, 108 to 110 °C
- CS(=O)(=O)Oc1cc(OS(C)(=O)=O)cc(OS(C)(=O)=O)c1 — lower, 145 to 149 °C
- O=C(O)COc1ccc2sc3ccccc3c(=O)c2c1 — lower, 207 to 212 °C
- COc1c(C2CCN(CCCCNC(=O)c3oc(-c4ccc(C#N)cc4)nc3C)CC2)ccc2c1CCCC2 — lower, 157 °C
- CCOc1ccc(C(=O)Nc2ccc3ccc(Cl)nc3n2)cc1 — lower, 208 °C
- CC(C)(C)OC(=O)C1CCN(C(=O)OCc2ccccc2)N1 (centres undefined) — lower, 55 to 57 °C
- COc1cc(Cc2c(N)nc(N)nc2O)cc(OC)c1OC — lower, 275 to 276 °C
- CCOC(=O)c1nc(-c2ccc(CN(C)C)cc2)[nH]c1-c1ccc(Cl)cc1 — lower, 117 to 118 °C
- O=C1SC(Cc2ccc(OCCON=Cc3cnc4ccccc4c3)cc2)C(=O)N1C(c1ccccc1)(c1ccccc1)c1ccccc1 (centres undefined) — lower, 127 to 130 °C
- CCn1c2c(c3ccccc31)S(=O)(=O)N(C)C(C(=O)Nc1ccccc1)=C2O — lower, 268 °C
- Cn1cc([C@H]2CC[C@@H](N3CCN(c4cc(C(=O)O)cc5cccnc45)CC3)CC2)c2cc(C#N)ccc21 — lower, 230 °C
- O=C1Cc2c([nH]c3cc(Cl)cc(Cl)c23)-c2ncccc2N1 — not separable, > 330 °C
- CC(C)(C)OC(=O)C(C(=O)c1ccc(NS(C)(=O)=O)cc1Cl)C(=O)C1CC1 (centres undefined) — lower, 137 to 140 °C
- COc1ccc(Cc2c(NC(C)C(C)(C)C)c(=O)c2=O)cc1 (centres undefined) — lower, 137 to 138 °C
- COc1ccc2c(c1)c(-c1cc3c(C(=O)O)ccnc3[nH]1)cn2C — not separable, > 300 °C
- O=C(c1cccc(F)c1)N1CC2CC2(c2ccc(Cl)cc2)C1 (centres undefined) — lower, 70 to 73 °C
- C[C@H](NC(=O)OC(C)(C)C)C(=O)NC1N=C(c2ccccn2)c2ccccc2N(C)C1=O (some centres undefined) — lower, 228 to 229 °C
- O=C(C=Cc1ccccc1)N1CCc2c([nH]c3ccccc23)C1c1ccccc1 (centres undefined) — lower, 130 to 132 °C
- CCCCCCCC(CCCCCCCCC(CCCCCCC)NC(C)=O)NC(C)=O (centres undefined) — lower, 158 to 162 °C
- COC(=O)c1cc2cc(N)ccc2o1 — lower, 112 to 113 °C
- CN(C)CCSc1nc2ccccc2n1CCc1ccccc1 — lower, 38 to 39 °C
- Cc1ccc2cc(-c3cccc4ccccc34)ccc2n1 — lower, 111 °C
- Cc1sc(-n2cccc2)c(C#N)c1C — lower, 45 °C
- Nc1c(Br)cc2c(c1Br)CCC2 — lower, 220 to 221 °C
- CCN(CC)CCN1C(=O)Nc2ccncc2C1c1ccccc1 (centres undefined) — lower, 132 to 134 °C
- COc1ccc(C(=O)Nc2nc3ccc(N(C)C)cc3c(N=Cc3ccccc3)c2C#N)cc1 — lower, 185 °C
- CCc1c(C(=O)C(=O)NC2=CC(=O)OC2)c2ccccc2n1Cc1ccc(Cl)cc1 — lower, 192 to 195 °C
- Cc1cc(-c2nc3cccnn3c2-c2ccnc(NC(=O)c3cccc4ccccc34)c2)ccc1F — lower, 252 to 253 °C
- COC(=O)c1nc(-c2ccccc2)n2c1CN=C(c1ccccc1Cl)c1cc(Cl)ccc1-2 — lower, 272 to 275 °C
- CC1CC2=CC(=O)CCC2(C)C2C(=O)CC3(C)C(=O)CCC3C12 (centres undefined) — lower, 235 to 237 °C
- C=C(C)C(=O)Oc1c(C(C)c2cc(C(C)(C)CC)cc(C(C)(C)CC)c2O)cc(C(C)(C)CC)cc1C(C)(C)CC (centres undefined) — lower, 103 to 105 °C
- COc1ccc(CC(=O)N2CCCCC2CC(c2ccccc2)c2ccccc2)cc1OC (centres undefined) — lower, 113 to 114 °C
- c1ccc(Cn2c3ccccc3c3ccsc32)cc1 — lower, 96 to 98 °C
- C=COC(=O)N1C[C@@H]2SCCC(c3ccccc3)(c3ccccc3)[C@@H]2C1 (racemic) — lower, 160 °C
- Nc1ncnc2c1c(-c1ccc(Oc3ccccc3)cc1)cn2CCN1C(=O)c2ccccc2C1=O — lower, 111 to 112 °C
- CC(=O)c1ccc2c(c1)C(=O)c1ccccc1CN2Cc1ccccc1 — lower, 163 to 165 °C
- CCN1C(=O)C(C)(C)c2ccc(C(=O)Nc3ccc(C#N)cc3)cc21 — lower, 211 to 213 °C
- CCCNC(=O)c1nc(-c2ccccc2)c(-c2ccc(=O)n(C)n2)s1 — lower, 108 to 109 °C
- CN1CCc2cc(Cl)c(N)cc2[C@@H](c2ccccc2)C1 — lower, 68 to 70 °C
- Cc1cc(C)c(C(C)(C)O)c(C)c1 — lower, 106 to 107 °C
- CN1CCC(C2(O)c3ccccc3C=Cn3ccnc32)CC1 (centres undefined) — lower, 155 °C
- CCOC(=O)c1c(C(F)(F)F)nc(OCC)c(C(N)=O)c1OCC — lower, 103 to 105 °C
- C[C@H](NC(=O)C[C@@H](CC(=O)O)c1ccc(F)cc1)c1ccccc1 — lower, 195 to 196 °C
- OC(c1ccccc1)(c1ccc(C(F)(F)F)cc1)c1nccn1Cc1ccccc1 (centres undefined) — lower, 167 to 169 °C
- O=c1[nH]c(=Cc2cccs2)c(=O)[nH]c1=Cc1ccc2ccccc2n1 — lower, 288 to 289 °C
- O=c1[nH]nc2n1-c1ccc(N3CCCC3)nc1C(c1ccccc1Cl)=[N+]([O-])C2 — lower, 200 °C
- COc1cccc2c1nc(C(F)F)n2-c1nc(Nc2cncnc2)nc(N2CCOCC2)n1 — lower, 293 to 295 °C
- COc1ccc2cc(-c3nn(C(C)c4oc5ccccc5c(=O)c4-c4cccc(F)c4)c4ncnc(N)c34)ccc2c1 (centres undefined) — lower, 285 to 287 °C
- CC(C)(C)c1ccc(C(=O)Nc2cn3c4c(ccc3n2)OCC4)cc1 — lower, 266 to 268 °C
- C#CCN1C(=O)COc2ccc(-n3c(=O)cc(C(F)(F)F)[nH]c3=O)cc21 — not separable, > 250 °C
- CC(C#N)c1cc([N+](=O)[O-])ccc1F (centres undefined) — lower, 55 to 56 °C
- CCOC(=O)CN1C(=O)N(c2ccc(C)cc2)C2(CCCCC2)C1=O — lower, 132 °C
- O=C(O)CCC(=O)NCc1ccc2c(c1)-c1[nH]nc(-c3ccsc3)c1C2 — lower, 235 to 236 °C
- C[C@H](CO)[C@H]1CC[C@H]2[C@@H]3C=CC4=CC(=O)C=C[C@]4(C)[C@H]3CC[C@]12C — lower, 156 to 157 °C
- CSc1ccc(C2=C(Br)C(=O)OC2)cc1 — lower, 138 to 140 °C
- CSC1=NCCN1CC(C)O (centres undefined) — lower, 114 to 116 °C
- COc1c2ccccc2c(-c2cc(Br)c(O[C@H](Cc3ccccc3)C(=O)O)c(Br)c2)c2c1sc1ccccc12 — lower, 102 to 110 °C
- COC(=O)CCCc1cc2cc(Cl)ccc2n1S(=O)(=O)c1ccc2sc(C)nc2c1 — lower, 136 to 138 °C
- O=c1nc(-c2cccc(S(=O)(=O)CCc3ccccc3)n2)sc2ccccc12 — lower, 162 to 164 °C
- CC12CCC3C(CC=C4CC(O)CCC43C)C1CC(Br)C2=O (centres undefined) — lower, 167 to 168 °C
- COc1ccc(-c2nc(C(=O)Nc3c(C)cccc3C)c[nH]2)cc1OC1CCCC1 — lower, 118 to 122 °C
- CC1(C)CCC(C)(C)c2cc(N)c(N)cc21 — lower, 185 °C
- OC[C@H]1CCc2cccc(O)c2O1 — lower, 131 to 132 °C
- Cc1nc2ncnn2c(O)c1CCCOCC(C)(C)C — lower, 155 to 159 °C
- Cc1cccc(N2C(=O)C(=CN(C)C)c3ccccc32)c1 — lower, 105 to 108 °C
- COc1ccc2c(c1)Cc1cc(F)ccc1C(=O)C2 — lower, 129 to 130 °C
- COc1nc(C(=O)NS(=O)(=O)c2c(Cl)cccc2Cl)cs1 — lower, 162 to 165 °C
- Cn1cc(C#N)c(Nc2ccccc2[N+](=O)[O-])n1 — lower, 172 °C
- Cc1ccc(-c2c3ccccc3c(-c3ccc(C)cc3)c3cc(Cl)ccc23)cc1 — lower, 202 to 204 °C
- CCCCCCCCCCC/C=C/c1ccc(C=CC(=O)O)cc1 — lower, 107 °C
- CS(=O)(=O)Nc1ccc(CCCOCCCCCCNCC(O)c2cc(O)cc(O)c2)cc1 (centres undefined) — lower, 66 to 69 °C
- Cc1ccc(C(=O)Nc2nc(-c3ccccc3)c(-c3nc4ccccc4c(=O)n3-c3ccccc3Cl)s2)cc1 — not separable, > 275 °C
- COc1ccc2c(=O)cc(C(=O)N[C@H]3CCN(C(=O)c4cc(C(F)(F)F)cc(C(F)(F)F)c4)[C@H](Cc4ccc(Cl)cc4)C3)oc2c1 — lower, 198 to 200 °C
- NC(=O)NCCNc1ccc([N+](=O)[O-])cc1 — lower, 187 °C
- CP(C)(=O)CN1CCN(c2n[nH]c3ccccc23)CC1 — lower, 223 to 225 °C
- Cn1cc(-c2cnccn2)cc(Cl)c1=O — lower, 197 to 198 °C
- CC(C)Cc1ccc(C2(c3ccccc3)OC(=O)C(O)=C2O)cc1 (centres undefined) — lower, 138 to 139 °C
- Cc1ccn2c(C)c(-c3ccc4c(c3)NC(=O)C(C)O4)nc2c1 (centres undefined) — lower, 254 to 256 °C
- CCOC(=O)c1[nH]cc(C)c1-c1ccccc1 — lower, 62 to 64 °C
- Nc1ccccc1NC(=O)c1cc2cccc(OCc3ccccn3)c2o1 — lower, 105 to 135 °C
- N#Cc1cc2c(-c3cccc(NC(=O)c4cccc(C(F)(F)F)c4)c3)ncnc2s1 — lower, 210 to 212 °C
